Reference: patent US12117402B2, “Bioluminescent sensor for isothiocyanates” (The United States of America, as represented by the …, priority 2021, dated 2024)

Assays:
[1] = test system: P. fluorescens SBW25 expressing an ilux operon under control of the saxA promoter; assay type: cell-based, Pseudomonas fluorescens SBW25; conditions: for responsiveness of the biosensor to the compound: FIG. 4
Protocol: (§1) For the basic microplate assay, the reporter biosensor was cultivated overnight in LB media with 50 μg/mL carbenicillin and 15 μg/mL gentamicin. The 200 μL assay was performed in opaque 96-well microtiter plates by adding ITC sample to the reporter cells at a final concentration of 0.05 OD600 in LB medium. All assay plates included cell-only controls (no ITC sample). Luminescence was measured in either a microplate spectrophotometer (Biotek Synergy HT) or a designated luminometer (Molecular Devices Spectramax L) for a 20-hour period in 15-minute intervals with ˜500 RPM shaking. Data were collected using auto-scaled gain or photon counting to increase signal detection. Modifications to the assay for the luxCDABE-based biosensor included a lower bacterial OD600 of 0.005, incubation at 31° C., and measurement every 30 min.
To increase the luminescent signal, the luxCDABE operon of the pHT #3 plasmid was replaced with the enhanced ilux operon that has an additional open reading frame encoding flavin mononucleotide (FMN) reductase and other optimizations (Gregor et al, Proc. Natl. Acad. Sci., (2018) 115(3): 962-967). All other components remained the same as the precursor, and this plasmid was assembled using the Gibson Assembly method (Gibson et al, Nature Meth., (2009) 6(5):343-347). The resulting plasmid, named pHT #9, was integrated into the P. fluorescens SBW25 genome in the same manner as pHT #3.
Plant extracts were prepared from seeds germinated in small petri dishes containing 0.5×Murashige and Skoog Medium and 0.3% agar for up to 4-days under artificial lighting. Germinated seeds and/or seedlings were transferred to 2-mL screwcap tubes containing steel beads. Water was added at a 1:2 ratio of plant weight to water volume. The tissue was macerated and pelleted by centrifugation. Supernatants were diluted prior to use in the basic microplate protocol.
To analyze the ability of the biosensor to detect ITCs in plant residues, seed meal was incubated on a rotating shaker at room temperature for 24 hrs with a 1:10 seed meal:water ratio (by mass) in 2.0 mL microcentrifuge tubes. Centrifuging and assaying of supernatant were conducted as described above for seedlings. Two seed meal types were tested—Sinapis alba (white mustard) and Brassica juncea (Indian mustard)—both of which are used in commercial biofumigation.
Biofumigated soil was collected from a field study in Hermiston, Oregon. The soils were managed in a 3-yr rotation with a Brassica cover crop mix (B. juncea Caliente 199 and Caliente Rojo; allyl ITC). The Brassica cover crop was tilled into the soil the day prior to sampling and the soils were stored frozen until analysis. […] Frozen soils were thawed and subsamples were homogenized (1600 MiniG homogenizer, 1500 RPM, 7 min), and rotated at room temperature for 45 min to allow time for glucosinolate hydrolysis. The sample was centrifuged for 5 min at 4,000×g and 100 μL extract was used in the basic microplate assay.
For analysis of seed meal amended soil, B. napus and S. alba seed meals were each added to a moist silt loam soils at 0.3% and 3% weight/dry weight. The soil/seed meals were mixed, transferred to small zippered bags and stored in gas-impermeable bags at room temperature. Soil amended with wheat straw and unamended soil were included as ITC-free controls.

[2] = aqueous solutions, pH 6; cited from earlier work
[3] = test system: P. fluorescens SBW25 expressing the luxCDABE operon under control of the saxA promoter
Excerpt: The plasmid vector pUC18T-Tn7T-lux-Gm (Damron et al., Appl. Environ. Microbiol. (2013) 79(13): 4149-4153), which contains Tn7 sites for integration into the P. fluorescens genome, a luxCDABE operon responsible for bioluminescence, and a gentamicin resistance marker. This plasmid also contained a pl promoter, an unregulated promoter upstream of the luxCDABE operon, which was removed and replaced with the desired promoter.
The saxA promoter was PCR amplified from Pseudomonas cannabina and cloned upstream of the luxCDABE gene operon. […] The resulting plasmid containing the luxCDABE operon under control of the saxA promoter was termed pHT #3. This plasmid was transformed into P. fluorescens SBW25, via electroporation and selected for gentamicin resistance.
as §1

Oc1ccc(CN=C=S)cc1 [4-hydroxybenzyl ITC]
responsiveness of the biosensor to the compound [1]: did not respond
half-life [2]: 6 min

CNC(=S)S [Metam-sodium]
responsiveness of the biosensor to the compound [1]: responsive

N#C[S-].[K+] [potassium thiocyanate]
responsiveness of the biosensor to the compound [1]: did not respond

C[S+]([O-])CCCCN=C=S (centres unmarked) [sulforaphane]
time of initial peak luminescence [1]: 4 to 4.5 h
response of luminescence to the amount of ITC ([1]; 0, 5, 10, 25, 50, 75, 100 μM): dose-dependent response
increase in AUC compared to the luxCDABE biosensor ([1]; 100 μM dose): 2 fold
increase in the maximum RLU compared to the luxCDABE biosensor ([1]; 100 μM dose): 7.7 fold
responsiveness of the biosensor to the compound [1]: responsive
concentrations detected (limits of detection) ([1]; low-dose range 0-20 μM): 1 to 2 µM
response of luminescence to the amount of ITC ([3]; 0, 25, 50, 75, 100 μM): dose dependent response
area under the curve (AUC) value of luminescence ([3]; 100 μM of ITC): 1.5×10^7
peak luminescence ([3]; 100 μM of ITC): approximately 700 relative light units (RLUs)
time of peak luminescence after inoculation ([3]; regardless of the concentration, 0-100 μM): 8 to 9 h
